Source: patent publication US20230248695A1, “COMBINATIONS OF CANCER THERAPEUTICS” (Merck Patent GmbH, priority 2020, published 2023)
Entries after “also recorded” stand apart in the source; their conditions may differ.

What was measured:
[1] = tested on: RCC patient derived xenografts (PDX); test: In vivo efficacy in sixteen RCC patient derived tumor xenograft models (PDX); parameters: species or system female NMRI nu/nu mice (human tumor xenografts); details: 16 s.c. RCC PDX models, n = 5 per group; p.o. up to 70 days; Compound A 100 mg/kg QD, axitinib 4 mg/kg BID, cabozantinib 10 mg/kg QD; progression = RTV 173%
Method: All experiments and protocols were approved by animal welfare body and local authorities, and were conducted according to all applicable international, national and local laws and guidelines. Only animals with unobjectionable health were selected to enter testing procedures. The animals (female NMRI nu/nu mice (NMRI-Foxn1^nu); Envigo RMS GmbH, Netherlands) were delivered at the age of four to six weeks and were used for experiments after at least one week of acclimatization. Animals were arbitrarily numbered during tumor implantation using radio frequency identification transponders. Each cage was labeled with a record card indicating all relevant experimental details.
The tumor xenografts were derived from surgical specimens from human cancer patients. Following excision at surgery, tumor pieces were subcutaneously implanted into immunodeficient mice and are therefore referred to as patient-derived tumor xenografts (PDX). Establishment and characterization of the PDXs was performed following their primary implantation into immunodeficient mice (passage 1). The tumor xenografts were passaged until establishment of a stable growth pattern.
Axitinib: A dosing solution of 0.4 mg/ml for dosing at 4 mg/kg/dose was prepared daily by dissolving 6.4 mg dry matter in 16 ml vehicle and stirring for at least 30 min. If necessary, the solution was sonicated for 2 min.
Cabozantinib: A dosing solution of 1 mg/ml for dosing at 10 mg/kg/dose was prepared directly before administration by slowly adding 0.2 ml 100% propylene glycol to 12 mg cabozantinib. It was stirred vigorously on a magnetic stirrer until a fine suspension with clumps formed, followed by vortexing briefly for 15-20 s. A further 3.4 ml propylene glycol was added and the stirring and vortexing steps were repeated. Then 600 µl 100% Tween 80 was added while stirring continuously followed by vortexing briefly for 15-20 s. The solution was then sonicated for 10 min and 7.8 ml D5W was added while stirring slowly. At this stage the solution was clear with lots of air bubbles. Care was taken to exclude these when drawing the suspension into a syringe for administration of therapy.
The resulting white suspension was stirred for two hours on a magnetic stirrer with a hot plate (Phoenix Instruments, model RSM-10HS) at 50° C. The suspension was brought to room temperature and mixed well each time before transferring to a syringe for dosing.
Tumor cell inoculation: Tumor fragments were obtained from xenografts in serial passage in nude mice. After removal from donor mice, tumors were cut into fragments (3-4 mm edge length) and placed in PBS containing 10% penicillin/streptomycin. Recipient animals were anesthetized by inhalation of isoflurane and received unilateral or bilateral tumor implants subcutaneously in the flank.
Randomization: Animals and tumor implants were monitored daily until solid tumor growth was detectable in a sufficient number of animals. At randomization, the volume of growing tumors was determined. […] Animals not used for experiments where available were used as satellite animals for PD sampling. The day of randomization was designated as day 0 of the experiment. The time from implantation to randomization at a standard tumor volume is expressed in days as “Induction time (IT)”. Induction times of tumors are routinely recorded, and a median IT is calculated for characterization purposes.
Tumor measurements and calculations: Tumor length (L) and width (W) were measured twice weekly by calipers. The tumor volume was calculated using the formula L×W^2/2. Relative volumes of individual tumors (individual RTVs) for Day x were calculated by dividing the absolute individual tumor volume on Day x (Tx) by the absolute individual tumor volume of the same tumor on the day of randomization (Tr) multiplied by 100%.

[2] = clinical trials; cited from earlier work

Structure (SMILES) | tumor growth / tumor progression under monotherapy treatment [1] | neurotoxicity [2]
O=C(NCc1cc(F)cc(F)c1)[C@@]1(O)CCN(c2ccc3[nH]ccc3c2)C1=O [Compound A, (S)-3-Hydroxy-1-(1H-indol-5-yl)-2-oxo-pyrrolidine-3-carboxylic acid 3,5-difluoro-benzylamide] | progressed under monotherapy treatment; also recorded: did not strongly inhibit tumor growth, and tumors progressed under treatment | 
COc1cc2nccc(Oc3ccc(NC(=O)C4(C(=O)Nc5ccc(F)cc5)CC4)cc3)c2cc1OC [cabozantinib, N-{4-[(6,7-dimethoxyquinolin-4-yl)oxy]phenyl}-N′-(4-fluorophenyl)cyclopropane-1,1-dicarboxamide] | progressed under monotherapy treatment; also recorded: did not strongly inhibit tumor growth, and tumors progressed under treatment | 
CNC(=O)c1ccccc1Sc1ccc2c(/C=C/c3ccccn3)n[nH]c2c1 [axitinib, N-methyl-2-({3-[(1E)-2-(pyridin-2-yl)ethenyl]-1H-indazol-6-yl}sulfanyl)benzamide] | progressed under monotherapy treatment; also recorded: did not strongly inhibit tumor growth, and tumors progressed under treatment | 
CO[C@@H]1[C@H](OC(=O)/C=C/C=C/C=C/C=C/C(=O)O)CC[C@]2(CO2)[C@H]1[C@@]1(C)O[C@@H]1CC=C(C)C [fumagillin] |  | pronounced neurotoxicity
